Columns and labels:
Carbonic anhydrase 1 = Carbonic anhydrase 1 (Homo sapiens, UniProt P00915); test: CA Activity Assay; conditions: pH 7.4; 25 °C
Experimental: (§1) CA activity was assayed in inhibition studies by following the change in absorbance at 348 nm of 4-nitrophenylacetate (NPA) to 4-nitrophenylate ion over a period of 3 min at 25°C using a spectrophotometer according to the method described by Verpoorte et al. [Verpoorte et al., J. Biol. Chem., 242:4221-4229] The enzymatic reaction, in a total volume of 1 mL, contained 50 mM Tris-SO4 buffer (pH = 7.4), 3 mM 4-nitrophenylacetate and enzyme solution. A reference measurement was done by using the same cuvette without enzyme solution. The inhibitory effects of some synthesized sulfonamide derivatives on CA enzyme activity purified from human erythrocyte were tested on three samples at each concentration used.

Carbonic anhydrase 2 = Carbonic anhydrase 2 (Homo sapiens, UniProt P00918); test: CA Activity Assay; conditions: pH 7.4; 25 °C
Experimental: as §1

Carbonic anhydrase 1, sequence (P00915 whole entry): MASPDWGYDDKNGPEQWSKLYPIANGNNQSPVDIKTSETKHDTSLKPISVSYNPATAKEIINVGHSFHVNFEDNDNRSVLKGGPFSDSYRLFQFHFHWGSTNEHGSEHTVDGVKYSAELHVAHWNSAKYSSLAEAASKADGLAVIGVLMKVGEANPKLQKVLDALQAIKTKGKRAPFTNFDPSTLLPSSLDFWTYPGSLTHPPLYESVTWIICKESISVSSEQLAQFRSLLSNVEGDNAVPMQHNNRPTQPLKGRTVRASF

Structure (SMILES)	Ki (Carbonic anhydrase 1)	Ki (Carbonic anhydrase 2)
NS(=O)(=O)c1ccc(NC(=O)c2nn(-c3cccc([N+](=O)[O-])c3)c(-c3ccccc3)c2C(=O)c2ccccc2)cc1 [4-benzoyl-1-(3-nitrophenyl)-5-phenyl-N-(4-sulfamoylphenyl)-1H-pyrazole-3-carboxamide (2)]	215 nM	337 nM
Nc1cccc(-n2nc(C(=O)Nc3ccc(S(N)(=O)=O)cc3)c(C(=O)c3ccccc3)c2-c2ccccc2)c1 [1-(3-aminophenyl)-4-benzoyl-5-phenyl-N-(4-sulfamoylphenyl)-1H-pyrazole-3-carboxamide (3)]	108 nM	55 nM
[N-]=[N+]=Nc1cccc(-n2nc(C(=O)Nc3ccc(S(N)(=O)=O)cc3)c(C(=O)c3ccccc3)c2-c2ccccc2)c1 [1-(3-azidophenyl)-4-benzoyl-5-phenyl-N-(4-sulfamoylphenyl)-1H-pyrazole-3-carboxamide (9)]	129 nM	64 nM

More lines, now with the values ahead:

Ki (Carbonic anhydrase 1)	Ki (Carbonic anhydrase 2)	Structure (SMILES)
4100 nM	1940 nM	NS(=O)(=O)c1ccc(NC(=O)c2nn(-c3cccc(NN=C(C(=O)c4ccccc4)C(=O)c4ccccc4)c3)c(-c3ccccc3)c2C(=O)c2ccccc2)cc1 [4-benzoyl-1-(3-(2-(1,3-dioxo-1,3-diphenylpropan-2-ylidene)hydrazinyl)phenyl)-5-phenyl-N-(4-sulfamoylphenyl)-1H-pyrazole-3-carboxamide (6)]
521 nM	166 nM	CC(=O)/C(=N\Nc1cccc(-n2nc(C(=O)Nc3ccc(S(N)(=O)=O)cc3)c(C(=O)c3ccccc3)c2-c2ccccc2)c1)C(=O)c1ccccc1 [4-benzoyl-1-(3-((3-hydroxy-1-oxo-1-phenylbut-2-en-2-yl)diazenyl)phenyl)-5-phenyl-N-(4-sulfamoylphenyl)-1Hpyrazole-3-carboxamide (7)]
160 nM	595 nM	CC(=O)C(=NNc1cccc(-n2nc(C(=O)Nc3ccc(S(N)(=O)=O)cc3)c(C(=O)c3ccccc3)c2-c2ccccc2)c1)C(C)=O [4-benzoyl-1-(3-((2-hydroxy-4-oxopent-2-en-3-yl)diazenyl)phenyl)-5-phenyl-N-(4-sulfamoylphenyl)-1H-pyrazole-3-carboxamide (5)]
2900 nM	8240 nM	CCOC(=O)/C(=N/Nc1cccc(-n2nc(C(=O)Nc3ccc(S(N)(=O)=O)cc3)c(C(=O)c3ccccc3)c2-c2ccccc2)c1)C(=O)c1ccccc1 [Ethyl-2-(2-(3-(4-benzoyl-5-phenyl-3-(4-sulfamoylphenylcarbamoyl)-1H-pyrazol-1-(phenyl)hydrazono)-3-oxo-3-phenylpropanoate (8)]

— BindingDB's records for doi:10.3109/14756366.2011.651465 (Dumlupinar University, 2013)
